Data: patent US20200283726A1, “PROCESS FOR CONTINUOUS CELL CULTURE OF GPSCS” (Georgetown University, priority 2017, published 2020)

Test system: gPSCs
Assay: Upstream/downstream ROCK pathway inhibitors used in the culture conditions in place of a ROCK inhibitor
Format: cell-based
Text: As used herein, inhibiting ROCK can mean to reduce the activity, function or expression of at least one of ROCK1 or ROCK2. […] In general, ROCK phosphorylates LIM kinase and myosin light chain (MLC) phosphatase after being activated through binding of GTP-bound Rho. One embodiment of the present invention thus involves blocking the upstream pathway of ROCK1 and/or ROCK2, for example GTP-bound Rho, such that ROCK1 and/or ROCK2 is not activated or its activity is reduced over untreated cells. Other upstream effectors include but are not limited to, integrins, growth factor receptors, including but not limited to, TGF-beta and EGFR, cadherins, G protein coupled receptors and the like. Another embodiment of the present invention thus involves blocking the activity, function or expression of downstream effector molecules of activated ROCK1 and/or ROCK2 such that ROCK1 and/or ROCK2 cannot propagate any signal or can only propagate a reduced signal over untreated cells. Downstream effectors include but are not limited to, Myosin phosphatase-targeting protein (MYPT), vimentin, LIMK, Myosin light chain kinase, NHE1, cofilin, Myosin II and the like. […] Upstream or downstream inhibition of ROCK, in place of direct ROCK inhibition and in conjunction with the other culture conditions described and required herein, may or may not generate conditionally immortalized gPSCs.

Row | Molecule | Effect on cells in culture
1 | C3 transferase | allow the cells to bypass differentiation and allow proliferation in vitro
2 | Cc1ccc2c(c1)C(=O)C1(O)CCN(c3ccccc3)C1=N2 (centres unmarked) [blebbistatin] | allow the cells to bypass differentiation and allow proliferation in vitro
